In EPA's ToxValDB 9.5 (doi:10.2903/j.efsa.2017.4695):

Tests used:
Aphidius rhopalosiphi = assay: LR50; higher = less toxic; settings: acute; mortality
Typhlodromus pyri = assay: LR50; higher = less toxic; settings: acute; mortality
Colinus virginianus = settings: acute; oral; mortality
Tagia sp. = settings: chronic/long-term; duration: 8 weeks; reproduction
Lepomis macrochirus = settings: acute; duration: 96 hours; mortality
Rattus norvegicus = settings: acute; oral; mortality
Oryctolagus sp. = settings: developmental; development
Pimephales promelas = settings: chronic/long-term; reproduction
Apis mellifera = settings: acute, mortality
Bibionidae = settings: chronic/long-term; duration: 28 days; development
Daphnia magna = settings: chronic/long-term; duration: 21 days; reproduction
Folsomia candida = settings: chronic/long-term; duration: 4 weeks; mortality

## COc1cc(OC)nc(NC(=O)NS(=O)(=O)c2c(Cl)nc3ccccn23)n1 [Imazosulfuron]
Aphidius rhopalosiphi
  LR50: > 50 g/ha
Typhlodromus pyri
  LR50: > 50 g/ha
Colinus virginianus
  LD50: > 2250 mg/kg-day
Tagia sp.
  NOEC: 500 mg/kg
Lepomis macrochirus
  LC50: > 74 mg/L
Rattus norvegicus
  LD50: > 1000 mg/kg-day
Oryctolagus sp.
  NOAEL: 50 mg/kg-day
Pimephales promelas
  NOEC: 2.9 mg/L
Apis mellifera; dermal
  LD50: > 100 µg/piece
Apis mellifera; oral, unspecified
  LD50: > 41.6 µg/piece
Anas platyrhynchos; acute, oral, unspecified, mortality
  LD50: > 2250 mg/kg-day
Anas platyrhynchos; reproductive, other
  NOAEL: 15.9 mg/kg-day
Bibionidae
  NOEC: 490 µg/L
Daphnia magna
  NOEC: 0.84 mg/L
Folsomia candida
  NOEC: 1000 mg/kg
